Test [1] deals with T1, HIV protease (Human immunodeficiency virus type 1 group M subtype B, UniProt P12497).
T1 construct: the protease expressed in Eschericia coli; made in house; host or cells: Escherichia coli
As to the kind of experiment: Assay for inhibition of microbial expressed HIV protease (peptide substrate, HPLC). It counts as biochemical. The following applies: protease expressed in Eschericia coli, 50 mM Na acetate, pH 5.5, 30° C., 1 hour. On the procedure: Assay for Inhibition of Microbial Expressed HIV Protease
Inhibition studies of the reaction of the protease expressed in Eschericia coli with a peptide substrate [Val-Ser-Gln-Asn(betanapthyl)Ala-Pro-Ile-Val, 0.5 mg/mL at the time the reaction is initiated] were in 50 mM Na acetate, pH 5.5, at 30° C. for 1 hour. Various concentrations of inhibitor in […] DMSO were added to […] of the peptide solution in water. The reaction is initiated by the addition of […] of 0.33 nM protease (0.11 ng) in a solution of 0.133M Na acetate pH 5.5 and 0.1% bovine serum albumin. The reaction was quenched with 160 ml of 5% phosphoric acid. Products of the reaction were separated by HPLC (VYDAC wide pore 5 cm C-18 reverse phase, acetonitrile gradient, 0.1% phosphoric acid). The extent of inhibition of the reaction was determined from the peak heights of the products.

In test [2] the test system is HIV-1 strain IIIb. Nature of the test: Inhibition of virus spread in HIV-infected MT-4 cells (p24 antigen). The following applies: Human immunodeficiency virus 1, MT4, 72 h; HIV-1 IIIb-infected MT-4 cells; 3 days incubation; HIV p24 antigen in supernatant; read-out: CIC95. Format: cell-based. The protocol: INHIBITION OF VIRUS SPREAD
A. Preparation of HIV-infected MT-4 cell Suspension.
MT cells were infected at Day 0 at a concentration of 250,000 per ml with a 1:1000 dilution of HIV-1 strain IIIb stock (final 125 pg p24/ml; sufficient to yield ≤1% infected cells on day 1 and 25-100% on day 4). Cells were infected and grown in the following medium: RPMI 1640 (Whittaker BioProducts), 10% inactivated fetal bovine serum, 4 mM glutamine (Gibco Labs) and 1:100 Penicillin-Streptomycin (Gibco Labs).
The mixture was incubated overnight at 37° C. in 5% CO2 atmosphere.
B. Treatment with Inhibitors
A matrix of nanomolar range concentrations of the pairwise combinations was prepared. At Day 1, aliquots of […] of inhibitors were added to equal volumes of HIV-infected MT-4 cells (50,000 per well) in a 96-well microtiter cell culture plate. Incubation was continued for 3 days at 37° C. in 5% CO2 atmosphere.
C. Measurement of Virus Spread
Using a multichannel pipettor, the settled cells were resuspended and […] harvested into a separate microtiter plate. The supernatant was assayed for HIV p24 antigen.
The concentration of HIV p24 antigen was measured by an enzyme immunoassay,described as follows. Aliquots of p24 antigen to be measured were added to microwells coated with a monoclonal antibody specific for HIV core antigen. […]

Turning to `CC(C)(C)NS(=O)(=O)c1ccccc1C[C@@H](O)C[C@@H](Cc1ccccc1)C(=O)N[C@H]1c2ccccc2C[C@H]1O` [Compound B], the IC50 in test [1] is 1 to 6 nM. Also, in test [2], the IC95 stood at 1500 nM.
Take `Cc1ccc(C[C@@H](O)C[C@@H](Cc2ccccc2)C(=O)N[C@H]2c3ccccc3C[C@H]2O)c(C(=O)NC(C)(C)C)c1` [Compound C]: the IC50 in test [1] is 1 to 6 nM.
`CC(C)(C)NC(=O)c1ccccc1C[C@@H](O)C[C@@H](Cc1ccccc1)C(=O)N[C@H]1c2ccccc2C[C@H]1O` [Compound A] had an IC50 in test [1] of 1 to 6 nM. Further, the IC95 in test [2] came to 800 nM.

Usually IC50 stands for the concentration at which inhibition is half-maximal. A lower IC50 goes with greater potency in that assay.
